Results on 23 compounds are retold here after PubChem BioAssay AID248 (DTP/NCI, 2004).

This test has as its system L1210 leukemia ip in BDF1 mice, survival T/C. Briefly: NCI In Vivo Anticancer Drug Screen. Data for tumor model L1210 Leukemia (intraperitoneal) in B6D2F1 (BDF1) mice. As to conditions: endpoint: mean survival time, higher = longer survival. The method in brief: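 Survival endpoint. Drug-treated group vs vehicle group, expressed as T divided by C. Tumor passaged by transplantation.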

Setting [1] is: dose: 100.0 mg/kg/injection, schedule: Q01DX009 (ip), vehicle: Klucel (hydroxypropylcellulose) (HPC).
The mark [2] stands for this setting: dose: 100.0 mg/kg/injection, schedule: Q04DX003 (ip), vehicle: Klucel (hydroxypropylcellulose) (HPC).
The mark [3] stands for this setting: dose: 200.0 mg/kg/injection, schedule: Q01DX009 (ip), vehicle: Klucel (hydroxypropylcellulose) (HPC).
[4] abbreviates: dose: 200.0 mg/kg/injection, schedule: Q04DX003 (ip), vehicle: Klucel (hydroxypropylcellulose) (HPC).
Where [5] appears, read: dose: 400.0 mg/kg/injection, schedule: Q01DX009 (ip), vehicle: Klucel (hydroxypropylcellulose) (HPC).
[6] abbreviates: dose: 400.0 mg/kg/injection, schedule: Q04DX003 (ip), vehicle: Klucel (hydroxypropylcellulose) (HPC).
Where [7] appears, read: dose: 75.0 mg/kg/injection, schedule: Q01DX001 (ip), vehicle: saline.
Setting [8] is: dose: 150.0 mg/kg/injection, schedule: Q01DX001 (ip), vehicle: saline.
[9] abbreviates: dose: 300.0 mg/kg/injection, schedule: Q01DX001 (ip), vehicle: saline.
Setting [10] is: dose: 200.0 mg/kg/injection, schedule: Q01DX001 (ip), vehicle: carboxymethylcellulose (CMC).
Where [11] appears, read: dose: 400.0 mg/kg/injection, schedule: Q01DX001 (ip), vehicle: carboxymethylcellulose (CMC).
Setting [12] is: dose: 100.0 mg/kg/injection, schedule: Q01DX009 (ip), vehicle: saline with Tween-80.
[13] abbreviates: dose: 200.0 mg/kg/injection, schedule: Q01DX009 (ip), vehicle: saline with Tween-80.
Setting [14] is: dose: 50.0 mg/kg/injection, schedule: Q01DX009 (ip), vehicle: saline with Tween-80.
Where [15] appears, read: dose: 100.0 mg/kg/injection, schedule: Q01DX001 (ip), vehicle: saline.

The structures appear in SMILES notation. Several values for one entry are separate records, joined by “and”; a condition that tells them apart may be missing. Identical values can stand only once. Inconclusive results and toxic doses are left out.

With `COc1ccccc1NC(=O)Nc1ccc(SC)cc1`, the T/C under setting [1] is 98 % of control; the T/C under setting [2] is 91 % of control; the T/C under setting [3] is 103 % of control; the T/C under setting [4] is 103 % of control; the T/C under setting [5] was 97 % of control; the T/C under setting [6] is 96 % of control.

`COc1ccc([N+](=O)[O-])cc1C(=O)O`: the T/C is, setting by setting: under setting [7], 104 % of control; (dose: 75.0 mg/kg/injection, schedule: Q04DX003 (ip), vehicle: acetone) 100 % of control; under setting [8], 95 % of control; (dose: 150.0 mg/kg/injection, schedule: Q04DX003 (ip), vehicle: acetone) 89 % of control; under setting [9], 104 % of control; (dose: 300.0 mg/kg/injection, schedule: Q04DX003 (ip), vehicle: acetone) 93 % of control.

For `O=S1Oc2ccccc2O1`, the T/C was 117 % of control under setting [7] and 103 % of control under setting [8].

Consider `c1ccc(N(c2ccccc2)C(c2ccccc2)(c2ccccc2)c2ccccc2)cc1`, for which the T/C (dose: 25.6 mg/kg/injection, schedule: Q04DX002 (ip), vehicle: saline with Tween-80) is 93 % of control; the T/C (dose: 64.0 mg/kg/injection, schedule: Q04DX002 (ip), vehicle: saline with Tween-80) is 104 % of control; the T/C (dose: 100.0 mg/kg/injection, schedule: Q04DX003 (ip), vehicle: saline with Tween-80) is 89 % of control; the T/C (dose: 160.0 mg/kg/injection, schedule: Q04DX002 (ip), vehicle: saline with Tween-80) was 95 % of control; the T/C (dose: 200.0 mg/kg/injection, schedule: Q04DX003 (ip), vehicle: saline with Tween-80) is 92 % of control; the T/C (dose: 400.0 mg/kg/injection, schedule: Q04DX002 (ip), vehicle: saline with Tween-80) was 95 % of control. For the same compound, the T/C (dose: 400.0 mg/kg/injection, schedule: Q04DX003 (ip), vehicle: saline with Tween-80) was 685 % of control.

Take `COC(=O)C1ON(C(=O)c2ccccc2)C(C)C2OC12` (stereo not drawn): the T/C was 103 % of control under setting [2], 100 % of control under setting [4] and 96 % of control under setting [6].

As to `c1ccc(-c2cnsc2)cc1`, the T/C reads like this: under setting [10], 95 % of control; under setting [11], 100 % of control.

As to `O=C(Nc1cccs1)c1ccccc1`, the T/C is 97 % of control (dose: 100.0 mg/kg/injection, schedule: Q04DX003 (ip), vehicle: saline); 93 % of control (dose: 200.0 mg/kg/injection, schedule: Q04DX003 (ip), vehicle: saline); 95 % of control (dose: 400.0 mg/kg/injection, schedule: Q04DX003 (ip), vehicle: saline).

Take `COc1ccc(OC(=O)Nc2ccc(Cl)cc2OC)cc1`: the T/C is, setting by setting: under setting [1], 92 % of control; under setting [3], 95 % of control.

In the case of `CCOC(=O)CNC(=O)OCCOc1ccc(-c2ccccc2)cc1`, the T/C runs as follows: under setting [12], 98 % of control; under setting [13], 97 % of control; (dose: 400.0 mg/kg/injection, schedule: Q01DX009 (ip), vehicle: saline with Tween-80) 95 % of control.

As to `O=C(O)C1CCOCC1`, the T/C is, setting by setting: under setting [1], 98 % of control; under setting [2], 96 % of control; under setting [3], 95 % of control; under setting [4], 89 % of control; under setting [5], 111 % of control; under setting [6], 88 % of control.

Turning to `OC(c1ccccc1)C1CCCC1` (stereo not drawn), the T/C under setting [14] was 90 % of control, the T/C under setting [12] was 93 % of control and the T/C under setting [13] is 90 % of control.

`NCCCCCCN` (tested in a mixture with another compound): the T/C reads like this: (dose: 3.0 mg/kg/injection, schedule: Q01DX009 (ip), vehicle: acid diluted with saline) 101 % of control; (dose: 3.0 mg/kg/injection, schedule: Q04DX003 (ip), vehicle: acid diluted with saline) 104 % of control; (dose: 6.0 mg/kg/injection, schedule: Q01DX009 (ip), vehicle: acid diluted with saline) 108 % of control; (dose: 6.0 mg/kg/injection, schedule: Q04DX003 (ip), vehicle: acid diluted with saline) 89 % of control; (dose: 12.0 mg/kg/injection, schedule: Q04DX003 (ip), vehicle: acid diluted with saline) 106 % of control.

In the case of `COC1OC(COC(c2ccccc2)(c2ccccc2)c2ccccc2)C2SC12` (stereo not drawn), the T/C was 102 % of control (dose: 50.0 mg/kg/injection, schedule: Q01DX001 (ip), vehicle: carboxymethylcellulose (CMC)); 107 % of control (dose: 100.0 mg/kg/injection, schedule: Q01DX001 (ip), vehicle: carboxymethylcellulose (CMC)); 100 % of control under setting [10]; 96 % of control under setting [11].

In the case of `CNC(=O)O/N=C(/SC)C(C)C`, the T/C is 100 % of control (dose: 5.0 mg/kg/injection, schedule: Q01DX001 (ip), vehicle: saline) and 100 % of control (dose: 10.0 mg/kg/injection, schedule: Q01DX001 (ip), vehicle: saline).

Turning to `Cc1ccc(S(=O)(=O)NC(=O)c2c3ccccc3cc3ccccc23)cc1`, the T/C (dose: 100.0 mg/kg/injection, schedule: Q01DX001 (ip), vehicle: acetone) is 104 % of control; the T/C (dose: 200.0 mg/kg/injection, schedule: Q01DX001 (ip), vehicle: acetone) is 104 % of control; the T/C (dose: 400.0 mg/kg/injection, schedule: Q01DX001 (ip), vehicle: acetone) was 96 % of control.

For `CCOc1ccccc1NC(=O)c1cccc(C(=O)Nc2ccccc2OCC)c1`, the T/C reads like this: under setting [1], 92 % of control; under setting [2], 90 % of control; under setting [3], 88 % of control; under setting [4], 96 % of control; under setting [5], 88 % of control; under setting [6], 90 % of control.

Take `Nc1ncc(C(=O)O)s1`: the T/C was 98 % of control under setting [1], 103 % of control under setting [3] and 87 % of control under setting [5].

For `CSC1C(O)C(CO)OC1n1cnc2c(N)ncnc21` (stereo not drawn), the T/C is, setting by setting: (dose: 100.0 mg/kg/injection, schedule: Q01DX005 (ip), vehicle: saline) 100 % of control; (dose: 200.0 mg/kg/injection, schedule: Q01DX005 (ip), vehicle: saline) 106 % of control.

For the compound `O=[N+]([O-])c1cccc2cccnc12`, the T/C runs as follows: (dose: 50.0 mg/kg/injection, schedule: Q01DX001 (ip), vehicle: saline) 107 % of control; under setting [14], 95 % of control; under setting [15], 107 % of control; under setting [12], 93 % of control.

`N=c1ccccn1CC(Cl)COc1ccccc1` (stereo not drawn): the T/C under setting [15] was 104 % of control.

With `OCC(O)C(O)C(O)C(O)C(SCc1ccccc1)SCc1ccccc1` (stereo not drawn), the T/C is 98 % of control (dose: 100.0 mg/kg/injection, schedule: Q04DX002 (ip), vehicle: Klucel (hydroxypropylcellulose) (HPC)); 92 % of control (dose: 200.0 mg/kg/injection, schedule: Q04DX002 (ip), vehicle: Klucel (hydroxypropylcellulose) (HPC)); 92 % of control (dose: 400.0 mg/kg/injection, schedule: Q04DX002 (ip), vehicle: Klucel (hydroxypropylcellulose) (HPC)).

As for `COc1ccc(C)cc1NC(=S)NC(=O)C(C)Oc1ccccc1` (stereo not drawn), the T/C (dose: 25.0 mg/kg/injection, schedule: Q01DX009 (ip), vehicle: Klucel (hydroxypropylcellulose) (HPC)) is 95 % of control; the T/C (dose: 50.0 mg/kg/injection, schedule: Q01DX009 (ip), vehicle: Klucel (hydroxypropylcellulose) (HPC)) is 93 % of control; the T/C under setting [1] was 101 % of control and 91 % of control; the T/C under setting [2] was 97 % of control; the T/C under setting [4] was 103 % of control; the T/C under setting [6] is 97 % of control.

As to `CC(=O)OC1C(C(=O)O)CC(C(=O)O)C1OC(C)=O` (stereo not drawn), the T/C runs as follows: (dose: 88.0 mg/kg/injection, schedule: Q01DX001 (ip), vehicle: saline) 88 % of control; under setting [15], 108 % of control; (dose: 133.0 mg/kg/injection, schedule: Q01DX001 (ip), vehicle: saline) 98 % of control; (dose: 200.0 mg/kg/injection, schedule: Q01DX001 (ip), vehicle: saline) 98 % of control; under setting [9], 98 % of control; (dose: 400.0 mg/kg/injection, schedule: Q01DX001 (ip), vehicle: saline) 106 % of control.
